PubChem BioAssay (NCI)
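Interpolation was linear, between the two tested concentrations surrounding the appropriate level; five concentrations were tested over 48 hours in 96-well plates. TGI is the concentration that stops growth completely.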

Columns and labels:
Experiment in all cases: growth of human tumour cells (NCI), 48 h
[1] = test system: SF-539 CNS
[2] = test system: ACHN renal
[3] = test system: HCC-2998 colon
[4] = test system: DU-145 prostate
[5] = test system: KM12 colon
[6] = test system: T-47D breast
[7] = test system: SW-620 colon
[8] = test system: A549 NSCLC
[9] = test system: RXF 393 renal
[10] = test system: NCI-H460 lung
[11] = test system: BT-549 breast
[12] = test system: OVCAR-8 ovarian
[13] = test system: SNB-75 CNS
[14] = test system: A498 renal
[15] = test system: OVCAR-5 ovarian
[16] = test system: HOP-92 NSCLC
[17] = test system: NCI-H23 lung
[18] = test system: SK-MEL-28 melanoma
[19] = test system: COLO 205 colon
[20] = test system: PC-3 prostate
[21] = test system: SNB-19 CNS
[22] = test system: SK-OV-3 ovarian
[23] = test system: K-562 leukemia
[24] = test system: LOX IMVI melanoma
[25] = test system: MCF7 breast
[26] = test system: UACC-62 melanoma
[27] = test system: M14 melanoma
[28] = test system: NCI-H226 lung
[29] = test system: IGROV1 ovarian
[30] = test system: HCT-116 colon
[31] = test system: TK-10 renal
[32] = test system: HL-60(TB) leukemia
[33] = test system: SR leukemia
[34] = test system: SF-295 CNS
[35] = test system: MOLT-4 leukemia
[36] = test system: MDA-MB-231 breast
[37] = test system: CCRF-CEM leukemia
[38] = test system: MDA-MB-435
[39] = test system: MALME-3M melanoma
[40] = test system: CAKI-1 renal
[41] = test system: NCI/ADR-RES ovarian
[42] = test system: RPMI-8226 leukemia
[43] = test system: UACC-257 melanoma
[44] = test system: SF-268 CNS
[45] = test system: UO-31 renal
[46] = test system: SK-MEL-2 melanoma
[47] = test system: HS 578T breast
[48] = test system: HT29 colon
[49] = test system: HCT-15 colon
[50] = test system: SN12C renal
[51] = test system: U251 CNS
[52] = test system: SK-MEL-5 melanoma
[53] = test system: OVCAR-4 ovarian
[54] = test system: HOP-62 NSCLC
[55] = test system: MDA-N
[56] = test system: OVCAR-3 ovarian
[57] = test system: 786-0 renal
[58] = test system: EKVX NSCLC
[59] = test system: NCI-H522 lung

In the case of CC(C)NC(=O)OCc1c(COC(=O)NC(C)C)n(C)c2c1ccc1sccc12, the TGI [1] was 26 µM, the TGI [2] was greater than 63.8 µM and the TGI [3] was 30.3 µM. The TGI [4] was 21.1 µM, the TGI [5] was 31.2 µM and the TGI [6] was 47.2 µM. It also gave a TGI [7] greater than 100 µM, a TGI [8] greater than 54.2 µM and a TGI [9] of 39.9 µM. It also gave a TGI [10] of 27.2 µM, a TGI [11] of 10.7 µM and a TGI [12] greater than 100 µM. It also gave a TGI [13] of 32.4 µM, a TGI [14] of 52.3 µM and a TGI [15] greater than 100 µM. It also gave a TGI [16] of 27.3 µM, a TGI [17] of 29.3 µM and a TGI [18] of 57.3 µM. For the same molecule, the TGI [19] was 37.9 µM, the TGI [20] was 43.7 µM and the TGI [21] was greater than 100 µM. The TGI [22] was greater than 100 µM, the TGI [23] was greater than 52.2 µM and the TGI [24] was greater than 53.1 µM. It also gave a TGI [25] greater than 55.5 µM, a TGI [26] of 32.5 µM and a TGI [27] of 36.7 µM. The TGI [28] was greater than 30.1 µM, the TGI [29] was 26.1 µM and the TGI [30] was 39 µM. The TGI [31] was 75.6 µM, the TGI [32] was greater than 100 µM and the TGI [33] was greater than 64.6 µM. It also gave a TGI [34] greater than 87.7 µM, a TGI [35] greater than 86.1 µM and a TGI [36] of 52 µM. The TGI [37] was greater than 100 µM, the TGI [38] was 35.1 µM and the TGI [39] was 13.6 µM. The TGI [40] was 50.1 µM, the TGI [41] was greater than 55.7 µM and the TGI [42] was greater than 58.8 µM. The TGI [43] was 39.5 µM, the TGI [44] was 21.5 µM and the TGI [45] was 68.7 µM. The TGI [46] was 36.2 µM, the TGI [47] was 34.6 µM and the TGI [48] was greater than 82.6 µM. The TGI [49] was greater than 52.3 µM, the TGI [50] was 76.2 µM and the TGI [51] was greater than 60.8 µM. It also gave a TGI [52] of 26.3 µM, a TGI [53] of 36.5 µM and a TGI [54] of 46.4 µM. For the same molecule, the TGI [55] was 42.8 µM, the TGI [56] was 36.9 µM and the TGI [57] was 36.8 µM. The TGI [58] was 34.1 µM and the TGI [59] was 15.5 µM.
